The results in this text go back to US8314093B2, “2,4-pyrimidinediamine compounds for treating or preventing autoimmune diseases” (Rigel Pharmaceuticals, Inc., priority 2006, dated 2012).

Structures are written as SMILES.

This experiment relates to cultured human mast cells (CHMC), IgE-induced degranulation. The experiment can be described thus: LD Tryptase assay: CHMC low cell density IgE activation, tryptase release. Type of experiment: cell-based. Conditions: anti-IgE stimulation, 8 pt. The method, then: Inhibition of degranulation is measured at both low and high cell density by quantifying the release of the granule specific factors tryptase, histamine and hexosaminidase. Inhibition of release and/or synthesis of lipid mediators is assessed by measuring the release of leukotriene LTC4 and inhibition of release and/or synthesis of cytokines is monitored by quantifying TNF-α, IL-6 and IL-13. Tryptase and hexosaminidase are quantified using fluorogenic substrates as described in their respective examples. Histamine, TNFα, IL-6, IL-13 and LTC4 are quantified using the following commercial ELISA kits: histamine (Immunotech #2015, Beckman Coulter), TNFα (Biosource #KHC3011), IL-6 (Biosource #KMC0061), IL-13 (Biosource #KHC0132) and LTC4 (Cayman Chemical #520211). The protocols of the various assays are provided below.
CHMC Low Cell Density IgE Activation: Tryptase and LTC4 Assays
To duplicate 96-well U-bottom plates (Costar 3799) add 65 ul of compound dilutions or control samples that have been prepared in MT [137 mM NaCl, 2.7 mM KCl, 1.8 mM CaCl2, 1.0 mM MgCl2, 5.6 mM Glucose, 20 mM Hepes (pH 7.4), 0.1% Bovine Serum Albumin, (Sigma A4503)] containing 2% MeOH and 1% DMSO. Pellet CHMC cells (980 rpm, 10 min) and resuspend in pre-warmed MT. Add 65 ul of cells to each 96-well plate. Depending on the degranulation activity for each particular CHMC donor, load 1000-1500 cells/well. Mix four times followed by a 1 hr incubation at 37° C. During the 1 hr incubation, prepare 6× anti-IgE solution [rabbit anti-human IgE (1 mg/ml, Bethyl Laboratories A80-109A) diluted 1:167 in MT buffer]. Stimulate cells by adding 25 ul of 6× anti-IgE solution to the appropriate plates. Add 25 ul MT to un-stimulated control wells. Mix twice following addition of the anti-IgE. Incubate at 37° C. for 30 minutes. During the 30 minute incubation, dilute the 20 mM tryptase substrate stock solution [(Z-Ala-Lys-Arg-AMC 2TFA; Enzyme Systems Products, #AMC-246)] 1:2000 in tryptase assay buffer [0.1 M Hepes (pH 7.5), 10% w/v Glycerol, 10 uM Heparin (Sigma H-4898) 0.01% NaN3]. Spin plates at 1000 rpm for 10 min to pellet cells. Transfer 25 ul of supernatant to a 96-well black bottom plate and add 100 ul of freshly diluted tryptase substrate solution to each well. Incubate plates at room temperature for 30 min. Read the optical density of the plates at 355 nm/460 nm on a spectrophotometric plate reader.
As for `COc1cc(Nc2ncc(F)c(Nc3ccc4c(c3)NC(=O)CO4)n2)cc(O)c1OC` [Example 5, 5-Fluoro-N2-(3-hydroxy-4,5-dimethoxyphenyl)-N4-[3-oxo-benz[1,4]oxazin-6-yl]-2,4-pyrimidinediamine], the IC50 (usually the midpoint of a concentration-inhibition curve) was less than 1000 nM.

For `COc1cc(Nc2ncc(F)c(Nc3ccc4c(n3)NC(=O)C(C)(C)O4)n2)cc(O)c1OC` [Example 4, N4-[2,2-Dimethyl-3-oxo-pyrid[1,4]oxazin-6-yl]-5-fluoro-N2-(3-hydroxy-4,5-dimethoxyphenyl)-2,4-pyrimidinediamine], the IC50 was less than 1000 nM.

`COc1cc(Nc2ncc(F)c(Nc3ccc4c(c3)NC(=O)C(F)(F)O4)n2)cc(O)c1OC` [Example 6, N4-[2,2-Difluoro-3-oxo-benz[1,4]oxazin-6-yl]-5-fluoro-N2-(3-hydroxy-4,5-dimethoxyphenyl)-2,4-pyrimidinediamine]: the IC50 is less than 1000 nM.

As for `COc1cc(Nc2ncc(F)c(Nc3ccc4c(c3)N(Cc3ccccn3)C(=O)CO4)n2)cc(O)c1OC` [Example 7, 5-Fluoro-N2-(3-hydroxy-4,5-dimethoxyphenyl)-N4[3-oxo-4-(2-pyridylmethyl)-benz[1,4]oxazin-6-yl]-2,4-pyrimidinediamine], the IC50 is less than 5000 nM.

For `COc1cc(Nc2ncc(F)c(Nc3ccc4c(c3)NC(=O)C(C)(C)O4)n2)cc(O)c1OC` [Example 3, N4-[2,2-Dimethyl-3-oxo-benz[1,4]oxazin-6-yl]-5-fluoro-N2-(3-hydroxy-4,5-dimethoxyphenyl)-2,4-pyrimidinediamine], the IC50 was less than 1000 nM.

In turn, `COc1cc(Nc2ncc(F)c(Nc3ccc4c(c3)NC(=O)C(C)(C)S4)n2)cc(O)c1OC` [Example 2, N4-[2,2-Dimethyl-3-oxo-benzo[1,4]thiazin-6-yl]-5-fluoro-N2-(3-hydroxy-4,5-dimethoxyphenyl)-2,4-pyrimidinediamine] had an IC50 of less than 1000 nM.

Regarding `COc1cc(Nc2ncc(F)c(Nc3ccc4c(c3)NC(=O)CS4)n2)cc(O)c1OC` [Example 1, 5-Fluoro-N2-(3-hydroxy-4,5-dimethoxyphenyl)-N4-[3-oxo-benzo[1,4]thiazin-6-yl]-2,4-pyrimidinediamine], the IC50 is less than 1000 nM.

Consider `COc1cc(Nc2ncc(F)c(Nc3ccc4c(c3)N(C)C(=O)C(C)(C)S4(=O)=O)n2)cc(O)c1OC` [Example 11, 5-Fluoro-N2-(3-hydroxy-4,5-dimethoxyphenyl)-N4-(2,2,4-trimethyl-1,1,3-trioxo-benzo[1,4]thiazin-6-yl)-2,4-pyrimidinediamine], for which the 50% inhibitory concentration (IC50) was less than 1000 nM.

In turn, `COc1cc(Nc2ncc(F)c(Nc3ccc4c(c3)N(C)C(=O)CS4)n2)cc(O)c1OC` [Example 12, 5-Fluoro-N2-(3-hydroxy-4,5-dimethoxyphenyl)-N4-(4-methyl-3-oxo-benzo[1,4]thiazin-6-yl)-2,4-pyrimidinediamine] yielded a half-inhibitory concentration (IC50) of less than 1000 nM.

In turn, `COc1ccc(CN2C(=O)C(C)Oc3ccc(Nc4nc(Nc5cc(O)c(OC)c(OC)c5)ncc4F)cc32)cc1` (racemic) [Example 9, (R/S)-5-Fluoro-N2-(3-hydroxy-4,5-dimethoxyphenyl)-N4-[2-methyl-3-oxo-4-(4-methoxybenzyl)-benz[1,4]oxazin-6-yl]-2,4-pyrimidinediamine] showed an IC50 of less than 5000 nM.

`COc1ccc(CN2C(=O)C(C)Sc3ccc(Nc4nc(Nc5cc(O)c(OC)c(OC)c5)ncc4F)cc32)cc1` (racemic) [Example 10, (R/S)-5-Fluoro-N2-(3-hydroxy-4,5-dimethoxyphenyl)-N4-[2-methyl-3-oxo-4-(4-methoxybenzyl)-benzo[1,4]thiazin-6-yl]-2,4-pyrimidinediamine]: the IC50 is less than 5000 nM.

For `COc1cc(Nc2ncc(F)c(Nc3ccc4c(n3)NCC(C)(C)O4)n2)cc(O)c1OC` [Example 13, N4-(3,4-Dihydro-2H-2,2-dimethyl-5-pyrido[1,4]oxazin-6-yl)-N2-[3,4-dimethoxyphenyl-5-hydroxyphenyl]-5-fluoro-2,4-pyrimidinediamine], the IC50 was less than 1000 nM.

The molecule `COc1cc(Nc2ncc(F)c(Nc3ccc4c(c3)C(=O)NC(=O)C4(C)C)n2)cc(O)c1OC` [Example 8, 5-Fluoro-N2-(3-hydroxy-4,5-dimethoxyphenyl)-N4-(1,3-(2H)-4,4-dimethylisoquinolinedione-7-yl)-2,4-pyrimidinediamine] registered an IC50 of less than 1000 nM.
